# Where two headings read alike, the source gives them in different places.
# Target: T1, rat brain N-type calcium channel subunits (α1B+α2δ+β1b cDNA subunits) (Rattus norvegicus, UniProt Q02294)
# T1 construct: expressed in transfected cells; host or cells: HEK 293 (human embryonic kidney), stably transfected; alternatively transiently transfected
# Experiment: N-type calcium channel block, whole cell patch clamp in HEK 293 cells
# Format: cell-based
# Details: holding potential −80 mV to +10 mV
# Protocol: N-type calcium channel blocking activity was assayed in human embryonic kidney cells, HEK 293, stably transfected with the rat brain N-type calcium channel subunits (α1B+α2δ+β1b cDNA subunits). Alternatively, N-type calcium channels (α1B+α2δ+β1b cDNA subunits), L-type channels (α1C+α2δ+β1b cDNA subunits) and P/Q-type channels (α1A+α2δ+β1b cDNA subunits) were transiently expressed in HEK 293 cells. Briefly, cells were cultured in Dulbecco's modified eagle medium (DMEM) supplemented with 10% fetal bovine serum, 200 U/ml penicillin and 0.2 mg/ml streptomycin at 37 with 5% CO2. At 85% confluency cells were split with 0.25% trypsin/1 mM EDTA and plated at 10% confluency on glass coverslips. At 12 hours the medium was replaced and the cells transiently transfected using a standard calcium phosphate protocol and the appropriate calcium channel cDNA's. Fresh DMEM was supplied and the cells transferred to 28° C./5% CO2. Cells were incubated for 1 to 2 days prior to whole cell recording.
# Whole cell patch clamp experiments were performed using an Axopatch 200B amplifier (Axon Instruments, Burlingame, Calif.) linked to a personal computer equipped with pCLAMP software. The external and internal recording solutions contained, respectively, 5 mM BaCl2, 10 mM MgCl2, 10 mM HEPES, 40 mM TEACl, 10 mM glucose, 87.5 mM CsCl (pH 7.2) and 108 mM CsMS, 4 mM MgCl2, 9 mM EGTA, 9 mM HEPES (pH 7.2). Currents were typically elicited from a holding potential of −80 mV to +10 mV using Clampex software (Axon Instruments). Typically, currents were first elicited with low frequency stimulation (0.067 Hz) and allowed to stabilize prior to application of the compounds. The compounds were then applied during the low frequency pulse trains for two to three minutes to assess tonic block, and subsequently the pulse frequency was increased to 0.2 Hz to assess frequency dependent block. Data were analyzed using Clampfit (Axon Instruments) and SigmaPlot 4.0 (Jandel Scientific).
# [1] = low frequency stimulation 0.067 Hz (tonic block), read-out: IC50 @ 0.067 Hz
# [2] = pulse frequency 0.2 Hz (frequency dependent block), read-out: IC50 @ 0.2 Hz
# T1 sequence (Q02294 whole entry): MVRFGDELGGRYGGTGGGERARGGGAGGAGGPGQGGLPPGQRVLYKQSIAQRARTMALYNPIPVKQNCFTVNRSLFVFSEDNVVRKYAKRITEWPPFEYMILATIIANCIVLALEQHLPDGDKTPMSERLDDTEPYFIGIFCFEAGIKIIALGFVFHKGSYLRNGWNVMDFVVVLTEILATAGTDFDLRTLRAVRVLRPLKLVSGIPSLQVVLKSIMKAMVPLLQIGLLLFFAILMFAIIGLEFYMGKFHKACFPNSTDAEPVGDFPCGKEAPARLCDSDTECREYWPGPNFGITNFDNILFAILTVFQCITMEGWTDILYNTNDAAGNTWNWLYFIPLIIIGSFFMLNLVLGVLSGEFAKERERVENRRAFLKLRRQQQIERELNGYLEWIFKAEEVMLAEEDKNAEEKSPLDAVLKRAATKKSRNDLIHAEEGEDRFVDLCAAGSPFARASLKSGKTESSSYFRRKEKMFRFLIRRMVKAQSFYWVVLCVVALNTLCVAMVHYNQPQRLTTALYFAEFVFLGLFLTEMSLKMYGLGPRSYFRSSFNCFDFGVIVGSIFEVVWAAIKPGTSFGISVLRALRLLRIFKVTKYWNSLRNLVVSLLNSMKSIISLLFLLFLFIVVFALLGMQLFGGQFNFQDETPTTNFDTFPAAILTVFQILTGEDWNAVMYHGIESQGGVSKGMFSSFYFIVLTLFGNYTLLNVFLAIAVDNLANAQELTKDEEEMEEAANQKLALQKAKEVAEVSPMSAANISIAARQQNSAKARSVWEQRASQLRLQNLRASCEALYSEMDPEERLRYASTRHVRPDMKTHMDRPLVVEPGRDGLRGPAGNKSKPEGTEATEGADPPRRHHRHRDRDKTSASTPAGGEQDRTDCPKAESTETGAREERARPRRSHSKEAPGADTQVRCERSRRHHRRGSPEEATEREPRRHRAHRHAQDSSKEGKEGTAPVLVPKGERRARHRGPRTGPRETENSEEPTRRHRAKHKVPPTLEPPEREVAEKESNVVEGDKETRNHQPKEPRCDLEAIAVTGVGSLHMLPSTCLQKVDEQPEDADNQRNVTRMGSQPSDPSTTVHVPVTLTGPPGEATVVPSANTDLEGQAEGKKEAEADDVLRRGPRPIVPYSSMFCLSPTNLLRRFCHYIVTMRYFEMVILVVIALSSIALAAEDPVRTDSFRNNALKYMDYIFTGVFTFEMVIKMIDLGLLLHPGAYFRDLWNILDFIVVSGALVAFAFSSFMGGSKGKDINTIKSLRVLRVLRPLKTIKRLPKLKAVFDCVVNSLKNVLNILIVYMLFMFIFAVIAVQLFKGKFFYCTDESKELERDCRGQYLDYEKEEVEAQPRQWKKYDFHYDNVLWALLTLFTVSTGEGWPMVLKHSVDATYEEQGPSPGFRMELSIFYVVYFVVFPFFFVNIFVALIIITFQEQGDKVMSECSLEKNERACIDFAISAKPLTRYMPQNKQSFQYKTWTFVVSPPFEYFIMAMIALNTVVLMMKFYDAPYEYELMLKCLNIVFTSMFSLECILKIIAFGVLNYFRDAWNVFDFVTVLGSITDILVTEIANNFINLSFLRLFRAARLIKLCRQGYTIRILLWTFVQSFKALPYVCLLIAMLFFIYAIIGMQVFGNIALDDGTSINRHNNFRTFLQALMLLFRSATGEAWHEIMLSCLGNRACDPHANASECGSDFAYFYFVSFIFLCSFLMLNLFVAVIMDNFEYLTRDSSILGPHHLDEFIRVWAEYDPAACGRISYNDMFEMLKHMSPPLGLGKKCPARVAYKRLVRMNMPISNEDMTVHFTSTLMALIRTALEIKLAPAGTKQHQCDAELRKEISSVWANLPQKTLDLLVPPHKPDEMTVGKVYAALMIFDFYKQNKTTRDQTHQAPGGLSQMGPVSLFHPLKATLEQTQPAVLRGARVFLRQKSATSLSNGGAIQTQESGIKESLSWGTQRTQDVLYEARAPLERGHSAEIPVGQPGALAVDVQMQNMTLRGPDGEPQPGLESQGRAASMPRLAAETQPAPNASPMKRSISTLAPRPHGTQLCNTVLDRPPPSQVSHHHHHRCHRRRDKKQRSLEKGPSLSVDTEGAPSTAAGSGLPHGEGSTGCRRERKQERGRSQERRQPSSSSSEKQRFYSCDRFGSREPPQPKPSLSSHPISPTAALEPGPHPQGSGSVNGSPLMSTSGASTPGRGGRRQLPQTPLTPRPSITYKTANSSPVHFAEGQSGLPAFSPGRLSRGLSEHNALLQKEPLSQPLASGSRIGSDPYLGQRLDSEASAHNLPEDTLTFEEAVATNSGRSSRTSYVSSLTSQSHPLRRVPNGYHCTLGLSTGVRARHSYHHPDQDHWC
# T1 sequence (P54290 25-944 partner limits assumed): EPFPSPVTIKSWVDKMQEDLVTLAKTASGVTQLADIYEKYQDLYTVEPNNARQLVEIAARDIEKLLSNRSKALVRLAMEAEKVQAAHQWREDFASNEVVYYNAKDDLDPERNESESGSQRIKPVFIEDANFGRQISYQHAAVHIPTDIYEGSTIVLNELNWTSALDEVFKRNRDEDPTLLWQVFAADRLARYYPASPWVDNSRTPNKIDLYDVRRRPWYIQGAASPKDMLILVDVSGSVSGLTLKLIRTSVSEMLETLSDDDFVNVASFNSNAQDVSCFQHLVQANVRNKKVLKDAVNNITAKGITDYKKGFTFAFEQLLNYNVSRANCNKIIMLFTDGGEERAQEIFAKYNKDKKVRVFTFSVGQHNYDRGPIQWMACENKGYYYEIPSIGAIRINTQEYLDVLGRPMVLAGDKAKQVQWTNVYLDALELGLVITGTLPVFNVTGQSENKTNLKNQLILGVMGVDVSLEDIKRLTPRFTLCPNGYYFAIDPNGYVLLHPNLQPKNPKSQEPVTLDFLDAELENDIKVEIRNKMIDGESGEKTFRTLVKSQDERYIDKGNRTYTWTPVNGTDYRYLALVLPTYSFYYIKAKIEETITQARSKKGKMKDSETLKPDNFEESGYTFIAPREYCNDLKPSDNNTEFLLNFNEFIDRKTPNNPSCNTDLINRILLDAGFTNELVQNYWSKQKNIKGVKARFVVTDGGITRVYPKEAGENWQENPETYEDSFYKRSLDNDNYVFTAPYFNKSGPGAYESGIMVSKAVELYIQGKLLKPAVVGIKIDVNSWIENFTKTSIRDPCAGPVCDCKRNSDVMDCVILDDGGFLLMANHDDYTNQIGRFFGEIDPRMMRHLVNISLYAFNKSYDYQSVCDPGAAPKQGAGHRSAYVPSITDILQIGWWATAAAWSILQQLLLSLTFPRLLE
# T1 sequence (P54290 945-1091 partner limits assumed): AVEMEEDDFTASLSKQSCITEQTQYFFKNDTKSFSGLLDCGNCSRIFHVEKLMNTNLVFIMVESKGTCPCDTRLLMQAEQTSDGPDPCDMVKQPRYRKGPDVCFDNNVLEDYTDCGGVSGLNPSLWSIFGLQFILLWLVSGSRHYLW
# T1 sequence (P54283 whole entry partner): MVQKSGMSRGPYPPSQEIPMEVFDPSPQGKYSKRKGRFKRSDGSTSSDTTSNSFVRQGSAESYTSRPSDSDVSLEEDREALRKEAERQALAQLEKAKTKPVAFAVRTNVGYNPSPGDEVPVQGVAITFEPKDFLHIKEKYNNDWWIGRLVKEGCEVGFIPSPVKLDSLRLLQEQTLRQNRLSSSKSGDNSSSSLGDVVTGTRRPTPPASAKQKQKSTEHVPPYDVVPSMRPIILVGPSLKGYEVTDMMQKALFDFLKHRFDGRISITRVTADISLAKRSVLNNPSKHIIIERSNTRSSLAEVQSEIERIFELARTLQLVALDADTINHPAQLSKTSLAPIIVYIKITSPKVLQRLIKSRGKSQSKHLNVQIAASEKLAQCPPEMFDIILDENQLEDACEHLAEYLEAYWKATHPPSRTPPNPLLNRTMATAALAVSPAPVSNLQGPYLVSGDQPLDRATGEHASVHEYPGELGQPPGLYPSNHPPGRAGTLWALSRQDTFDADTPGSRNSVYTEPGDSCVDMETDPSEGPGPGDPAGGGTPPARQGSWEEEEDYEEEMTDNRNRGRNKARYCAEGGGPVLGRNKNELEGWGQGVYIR
Structure (SMILES),IC50 [1],IC50 [2]
"O=C(C1CC1C(=O)N1CCN(C(c2ccccc2)c2ccccc2)CC1)N1CCN(c2ccccc2)CC1 (centres unmarked) [Compound 2, (4-benzhydrylpiperazin-1-yl)(2-(4-phenylpiperazine-1-carbonyl)cyclopropyl)methanone]",0.44 µM,0.31 µM
"CN1CCN(C(=O)C2CC2C(=O)N2CCN(C(c3ccccc3)c3ccccc3)CC2)CC1 (centres unmarked) [Compound 3, (4-benzhydrylpiperazin-1-yl)(2-(4-methylpiperazine-1-carbonyl)cyclopropyl)methanone]",2.5 µM,1.5 µM
"O=C(Nc1ccccc1)C1CC1C(=O)N1CCN(C(c2ccccc2)c2ccccc2)CC1 (centres unmarked) [Compound 6, 2-(4-benzhydrylpiperazine-1-carbonyl)-N-phenylcyclopropanecarboxamide]",3.2 µM,1.9 µM
"CC(NC(=O)C1CC1C(=O)N1CCN(C(c2ccccc2)c2ccccc2)CC1)c1ccccc1 (centres unmarked) [Compound 10, 2-(4-benzhydrylpiperazine-1-carbonyl)-N-(1-phenylethyl)cyclopropane carboxamide]",1.55 µM,0.97 µM
"CC(C)(C)C1CCC(NC(=O)C2CC2C(=O)N2CCN(C(c3ccccc3)c3ccccc3)CC2)CC1 (centres unmarked) [Compound 11, 2-(4-benzhydrylpiperazine-1-carbonyl)-N-(4-tert-butylcyclohexyl)cyclopropane carboxamide]",0.09 µM,0.08 µM
"CC(C)N(C(=O)C1CC1C(=O)N1CCN(C(c2ccccc2)c2ccccc2)CC1)C(C)C (centres unmarked) [Compound 14, 2-(4-benzhydrylpiperazine-1-carbonyl)-N,N-diisopropylcyclopropane carboxamide]",1.56 µM,0.86 µM
"CC(C)(C)N1CCN(C(=O)C2CC2C(=O)N2CCN(C(c3ccccc3)c3ccccc3)CC2)CC1 (centres unmarked) [Compound 15, (4-benzhydrylpiperazin-1-yl)(2-(4-tert-butylpiperazine-1-carbonyl)cyclopropyl) methanone]",8.53 µM,6.86 µM
"CC1CCC(CN2CCN(C(=O)C3CC3C(=O)N3CCN(C(c4ccccc4)c4ccccc4)CC3)CC2)CC1 (centres unmarked) [Compound 18, (4-benzhydrylpiperazin-1-yl)(2-(4-((4-methylcyclohexyl)methyl)piperazine-1-carbonyl)cyclopropyl)methanone]",0.69 µM,0.44 µM

# The remaining lines, values ahead:
IC50 [1],IC50 [2],Structure (SMILES)
0.16 µM,0.15 µM,O=C(C1CC1C(=O)N1CCN(C(c2ccccc2)c2ccccc2)CC1)N1CCN(C(c2ccccc2)c2ccccc2)CC1 (centres unmarked) [Compound 1]
> 5.83 µM,> 3.95 µM,"O=C(C1CC1C(=O)N1CCN(C(c2ccccc2)c2ccccc2)CC1)N1CCC(N2CCOCC2)CC1 (centres unmarked) [Compound 4, (4-benzhydrylpiperazin-1-yl)(2-(4-morpholinopiperadine-1-carbonyl)cyclopropyl)methanone]"
2 µM,1.5 µM,COCCN1CCN(C(=O)C2CC2C(=O)N2CCN(C(c3ccccc3)c3ccccc3)CC2)CC1 (centres unmarked) [Compound 7]
0.94 µM,0.53 µM,"O=C(C1CC1C(=O)N1CCN(C(c2ccccc2)c2ccccc2)CC1)N1CCN(c2ccccc2F)CC1 (centres unmarked) [Compound 8, (4-benzhydrylpiperazin-1-yl)(2-(4-(2-fluorophenyl)piperazine-1-carbonyl)cyclopropyl)methanone]"
0.63 µM,0.43 µM,"COc1ccccc1N1CCN(C(=O)C2CC2C(=O)N2CCN(C(c3ccccc3)c3ccccc3)CC2)CC1 (centres unmarked) [Compound 9, (4-benzhydrylpiperazin-1-yl)(2-(4-(2-methoxyphenyl)piperazine-1-carbonyl)cyclopropyl)methanone]"
0.18 µM,0.12 µM,"CC1CCC(NC(=O)C2CC2C(=O)N2CCN(C(c3ccccc3)c3ccccc3)CC2)CC1 (centres unmarked) [Compound 12, 2-(4-benzhydrylpiperazine-1-carbonyl)-N-(4-methylcyclohexyl)cyclopropane carboxamide]"
0.71 µM,0.44 µM,"CC1CN(C(=O)C2CC2C(=O)N2CCN(C(c3ccccc3)c3ccccc3)CC2)CC(C)N1 (centres unmarked) [Compound 13, (4-benzhydrylpiperazin-1-yl)(2-(3,5-dimethylpiperazine-1-carbonyl)cyclopropyl)methanone]"
12.5 µM,6.79 µM,"CNC1CCN(C(=O)C2CC2C(=O)N2CCN(C(c3ccccc3)c3ccccc3)CC2)CC1 (centres unmarked) [Compound 16, (4-benzhydrylpiperazin-1-yl)(2-(4-(methylamino)piperadine-1-carbonyl)cyclopropyl)methanone]"
